Values after ≈ are worked out from the molar mass of the structure shown.
Experiments:
Type in all cases: functional, organism-based
[1] = tested on: Plasmodium falciparum; experiment: Antiplasmodial activity against chloroquine-sensitive Plasmodium falciparum 3D7 infected in human erythrocyte incubated for 72 hrs by SYBR green I staining based fluorescence assay; conditions: 3D7, Erythrocyte
[2] = tested on: Plasmodium falciparum; experiment: Antimalarial activity against chloroquine-sensitive Plasmodium falciparum FCC1 measured after 48 hrs; conditions: FCC1, 48 h
[3] = tested on: Plasmodium falciparum; experiment: Antimalarial activity against chloroquine-resistant Plasmodium falciparum VNS measured after 48 hrs
[4] = tested on: Plasmodium falciparum; experiment: Antiplasmodial activity against Plasmodium falciparum Dd2 infected in human Erythrocyte measured after 72 hrs by SYBR green fluorescence dye based microplate reader analysis
[5] = tested on: Plasmodium falciparum; experiment: Antiplasmodial activity against Plasmodium falciparum D6 infected in human Erythrocyte measured after 72 hrs by SYBR green fluorescence dye based microplate reader analysis
[6] = tested on: Plasmodium falciparum; experiment: Antiplasmodial activity against Plasmodium falciparum Tm90-C2B infected in human Erythrocyte measured after 72 hrs by SYBR green fluorescence dye based microplate reader analysis
[7] = tested on: Plasmodium berghei; experiment: Antiplasmodial activity against liver stage Plasmodium berghei ANKA infected in human HepG2 cells measured after 44 hrs; conditions: HepG2, 44 h
[8] = tested on: Plasmodium falciparum; experiment: Antimalarial activity against blood stage chloroquine-sensitive Plasmodium falciparum NF54-R infected in erythrocytes assessed as reduction in parasite growth preincubated for 72 hrs followed by addition of [3H]Hypoxanthine and measured after 24 hrs by liquid scintillation counting method; conditions: Erythrocyte
[9] = tested on: Plasmodium falciparum; experiment: Antimalarial activity against blood stage chloroquine-sensitive Plasmodium falciparum 3D7 infected in erythrocytes assessed as reduction in parasite growth preincubated for 72 hrs followed by addition of [3H]Hypoxanthine and measured after 24 hrs by liquid scintillation counting method; conditions: 3D7, Erythrocyte
[10] = tested on: Plasmodium yoelii yoelii; experiment: Antimalarial activity against hepatic stage Plasmodium yoelii yoelii 265 BY for 48 hrs with media renew every 24 hrs
[11] = tested on: Plasmodium falciparum; experiment: Antimalarial activity against Antimalarial activity against chloroquine-sensitive Plasmodium falciparum FCR-3
[12] = tested on: Plasmodium falciparum; experiment: Antiplasmodial activity against synchronized Plasmodium falciparum 3D7
[13] = tested on: Plasmodium falciparum; experiment: Antiplasmodial activity against synchronized Plasmodium falciparum K1
[14] = tested on: Plasmodium falciparum; experiment: Antiplasmodial activity against asynchronous Plasmodium falciparum K1
[15] = tested on: Plasmodium falciparum; experiment: Antiplasmodial activity against asynchronous Plasmodium falciparum CS2
[16] = tested on: Plasmodium falciparum; experiment: Antiplasmodial activity against asynchronous Plasmodium falciparum 3D7

Row | Compound | IC50 [8] [µg/mL] | IC50 [9] [µg/mL] | IC50 [10] [µg/mL] | other results
1 | C=CC1CC2CCC1CC2[C@H](OC(=O)[C@H](C)NC(=O)C1=CN2C3C(=C(N4CCN(C)CC4)C(F)=CC3C1=O)OC[C@@H]2C)c1cccc2ccc(OC)cc12 (stereo partly drawn) | – | – | – | IC50 [1]: 33 nM
2 | C=CC1CC2CCC1CC2[C@H](OC(=O)CNC(=O)C1=CN2C3C(=C(N4CCN(C)CC4)C(F)=CC3C1=O)OC[C@@H]2C)c1cccc2ccc(OC)cc12 (stereo partly drawn) | – | – | – | IC50 [1]: 12 nM
3 | C=CC1CC2CCC1CC2[C@H](OC(=O)[C@@H](NC(=O)C1=CN(CC)C2C=C(C)C=CC2C1=O)C(C)C)c1cccc2ccc(OC)cc12 (stereo partly drawn) | – | – | – | IC50 [1]: 16 nM
4 | C=CC1CC2CCC1CC2[C@H](OC(=O)[C@@H](NC(=O)C1=CN(CC)C2C=C3OCOC3=CC2C1=O)C(C)C)c1cccc2ccc(OC)cc12 (stereo partly drawn) | – | – | – | IC50 [1]: 183 nM
5 | CNn1cc(C(=O)O)c(=O)c2cc(F)c(N3CCN(C)CC3)cc21 [AMIFLOXACIN] | – | – | – | IC50 [2]: 550 µM; IC50 [3]: 870 µM
6 | C[C@@H]1CC[C@H]2[C@@H](C)C(=O)O[C@@H]3O[C@@]4(C)CC[C@@H]1[C@]32OO4 [ARTEMISININ] | – | – | – | IC50 [4]: 0.6 nM; IC50 [5]: 0.81 nM; IC50 [6]: 2.1 nM
7 | O=C1C(O)=C([C@H]2CC[C@H](c3ccc(Cl)cc3)CC2)C(=O)c2ccccc21 [ATOVAQUONE] | – | – | – | IC50 [4]: 0.5 nM; IC50 [5]: 0.3 nM; IC50 [6]: 5090 nM
8 | CCN(CC)CCCC(C)Nc1ccnc2cc(Cl)ccc12 (stereo not drawn) [CHLOROQUINE] | – | – | – | IC50 [7]: > 1.2 nM
9 | CCn1nc(C(=O)O)c(=O)c2cc3c(cc21)OCO3 [CINOXACIN] | 28.5 (≈ 109 µM) | 118 (≈ 451 µM) | 36.3 (≈ 138 µM) | –
10 | NC1CCN(c2c(F)cc3c(=O)c(C(=O)O)cn(C4CC4)c3c2Cl)C1 (stereo not drawn) [CLINAFLOXACIN] | 3.3 (≈ 9.02 µM) | 13.7 (≈ 37.5 µM) | 90.2 (≈ 247 µM) | –
11 | CCn1cc(C(=O)O)c(=O)c2cc(F)c(N3CCNCC3)nc21 [ENOXACIN] | 1.4 (≈ 4.37 µM) | 38.8 (≈ 121 µM) | > 100 | IC50 [2]: 800 µM; IC50 [3]: 990 µM
12 | CN1CCN(c2c(F)cc3c(=O)c(C(=O)O)cn(CCF)c3c2F)CC1 [FLEROXACIN] | 12.9 (≈ 34.9 µM) | 34.6 (≈ 93.7 µM) | > 100 | –
13 | CC1CCc2cc(F)cc3c(=O)c(C(=O)O)cn1c23 (stereo not drawn) [FLUMEQUINE] | 14.1 (≈ 54 µM) | 38.3 (≈ 147 µM) | > 100 | –
14 | COc1c(N2CCNC(C)C2)c(F)cc2c(=O)c(C(=O)O)cn(C3CC3)c12 (stereo not drawn) [GATIFLOXACIN] | 10.9 (≈ 29 µM) | 34.8 (≈ 92.7 µM) | > 100 | –
15 | Cc1c(F)c(N2CCNC(C)C2)cc2c1c(=O)c(C(=O)O)cn2C1CC1 (stereo not drawn) [GREPAFLOXACIN] | 3.1 (≈ 8.63 µM) | 4.5 (≈ 12.5 µM) | 4.4 (≈ 12.2 µM) | –
16 | CCn1cc(C(=O)O)c(=O)c2cc(F)c(-n3cccc3)cc21 [IRLOXACIN] | 10.5 (≈ 35 µM) | 49.4 (≈ 165 µM) | > 100 | –
17 | C[C@H]1COc2c(N3CCN(C)CC3)c(F)cc3c(=O)c(C(=O)O)cn1c23.C[C@H]1COc2c(N3CCN(C)CC3)c(F)cc3c(=O)c(C(=O)O)cn1c23.O [LEVOFLOXACIN] | 40.3 | 112 | > 100 | IC50 [1]: > 20000 nM
18 | CN1CCN(c2c(F)cc3c(=O)c(C(=O)O)cn4c3c2OCN4C)CC1 [MARBOFLOXACIN] | 21.6 (≈ 59.6 µM) | 30.8 (≈ 85 µM) | > 100 | –
19 | COc1c(N2C[C@@H]3CCCN[C@@H]3C2)c(F)cc2c(=O)c(C(=O)O)cn(C3CC3)c12 [MOXIFLOXACIN] | 18 (≈ 44.8 µM) | 44.8 (≈ 112 µM) | > 100 | –
20 | CCn1cc(C(=O)O)c(=O)c2ccc(C)nc21 [NALIDIXIC ACID] | 59.1 (≈ 254 µM) | 117 (≈ 502 µM) | > 100 | IC50 [1]: > 20000 nM
21 | CCn1cc(C(=O)O)c(=O)c2cc3c(cc21)OCO3 [OXOLINIC ACID] | 42.2 (≈ 162 µM) | 130 (≈ 496 µM) | > 100 | IC50 [1]: > 10000 nM
22 | CCn1cc(C(=O)O)c(=O)c2cc(F)c(N3CCN(C)CC3)cc21 [PEFLOXACIN] | 6.5 (≈ 19.5 µM) | 83.7 (≈ 251 µM) | 86.3 (≈ 259 µM) | IC50 [2]: 1300 µM; IC50 [3]: 850 µM
23 | CCn1cc(C(=O)O)c(=O)c2cnc(N3CCNCC3)nc21 [PIPEMIDIC ACID] | 10.5 (≈ 34.6 µM) | 40.9 (≈ 135 µM) | > 100 | –
24 | CCn1cc(C(=O)O)c(=O)c2cnc(N3CCCC3)nc21 [PIROMIDIC ACID] | 14.4 (≈ 49.9 µM) | 41.4 (≈ 144 µM) | 21.6 (≈ 74.9 µM) | –
25 | C=C[C@H]1CN2CC[C@H]1C[C@H]2[C@H](O)c1ccnc2ccc(OC)cc12 [QUININE] | – | – | – | IC50 [11]: 110 nM; IC50 [1]: 18 nM
26 | CCn1cc(C(=O)O)c(=O)c2ccc(-c3ccncc3)cc21 [ROSOXACIN] | 10.6 (≈ 36 µM) | 87.9 (≈ 299 µM) | – | –
27 | CN1CCN(c2c(F)cc3c(=O)c(C(=O)O)cn4c3c2SCC4)CC1 [RUFLOXACIN] | 30.1 (≈ 82.8 µM) | 81.9 (≈ 225 µM) | 47.8 (≈ 132 µM) | –
28 | C[C@@H]1CN(c2c(F)c(N)c3c(=O)c(C(=O)O)cn(C4CC4)c3c2F)C[C@H](C)N1 [SPARFLOXACIN] | 73.9 (≈ 188 µM) | 143 (≈ 364 µM) | 53 (≈ 135 µM) | –
29 | CC1CN(c2cc3c(cc2F)c(=O)c(C(=O)O)cn3-c2ccc(F)cc2F)CCN1 (stereo not drawn) [TEMAFLOXACIN] | 14.1 (≈ 33.8 µM) | 34.9 (≈ 83.6 µM) | 72.2 (≈ 173 µM) | –
30 | N[C@@H]1[C@H]2CN(c3nc4c(cc3F)c(=O)c(C(=O)O)cn4-c3ccc(F)cc3F)C[C@@H]12 [TROVAFLOXACIN] | 9.2 (≈ 22.1 µM) | 9.6 (≈ 23.1 µM) | – | IC50 [12]: 34 µM; IC50 [13]: 18 µM; IC50 [14]: 33 µM; IC50 [15]: 34 µM; IC50 [16]: 36 µM

— ChEMBL document CHEMBL5244209, “Antiplasmodial and antimalarial activities of quinolone derivatives: An overview” (Eur J Med Chem, 2018)
